Data on twelve compounds can be found in ChEMBL document CHEMBL1138210, “Discovery of potent, orally-active, and muscle-selective androgen receptor modulators based on an N-aryl-hydroxybicyclohydantoin scaffold” (J Med Chem, 2006).

The subject of assay [1] is Rattus norvegicus. In words: Stimulation of prostate growth in orally dosed castrated Sprague-Dawley rat. The format is functional. Particulars: Prostate gland, po.
The test system of assay [2] is Rattus norvegicus. As to the kind of experiment: Stimulation of levator ani muscle growth in orally dosed castrated Sprague-Dawley rat. The note with it: po. The assay is classed as functional.
For assay [3], the target named is T1, Androgen receptor (Rattus norvegicus, UniProt P15207).
T1 sequence (P15207 whole entry): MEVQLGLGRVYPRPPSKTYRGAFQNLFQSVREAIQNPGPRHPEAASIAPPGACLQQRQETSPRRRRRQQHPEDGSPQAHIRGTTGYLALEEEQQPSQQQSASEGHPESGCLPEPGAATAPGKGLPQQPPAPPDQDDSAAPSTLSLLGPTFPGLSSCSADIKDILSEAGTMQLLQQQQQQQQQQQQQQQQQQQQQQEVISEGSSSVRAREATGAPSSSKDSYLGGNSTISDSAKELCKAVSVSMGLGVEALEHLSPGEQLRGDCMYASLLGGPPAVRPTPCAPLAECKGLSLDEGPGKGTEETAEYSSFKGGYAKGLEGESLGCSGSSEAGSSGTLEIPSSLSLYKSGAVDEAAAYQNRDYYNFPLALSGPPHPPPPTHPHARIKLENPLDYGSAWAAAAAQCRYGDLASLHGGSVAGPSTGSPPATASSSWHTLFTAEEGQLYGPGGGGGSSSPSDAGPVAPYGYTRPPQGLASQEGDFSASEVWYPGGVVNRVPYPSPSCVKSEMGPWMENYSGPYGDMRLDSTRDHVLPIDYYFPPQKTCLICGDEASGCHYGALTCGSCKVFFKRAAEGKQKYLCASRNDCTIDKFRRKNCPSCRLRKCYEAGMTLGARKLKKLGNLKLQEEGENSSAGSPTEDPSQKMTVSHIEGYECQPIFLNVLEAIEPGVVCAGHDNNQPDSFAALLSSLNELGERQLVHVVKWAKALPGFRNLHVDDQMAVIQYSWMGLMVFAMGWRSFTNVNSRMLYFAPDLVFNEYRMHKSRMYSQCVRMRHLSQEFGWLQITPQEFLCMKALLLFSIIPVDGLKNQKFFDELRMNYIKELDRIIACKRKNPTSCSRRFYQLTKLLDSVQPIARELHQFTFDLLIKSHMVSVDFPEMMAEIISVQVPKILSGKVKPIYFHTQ
Description: Agonist activity at rat AR transfected in mouse C2C12 cells by luciferase reporter transactivation assay

Assay [4] deals with Rattus norvegicus. As to the kind of experiment: Inhibition of LH secretion in orally dosed castrated Sprague-Dawley rat. The format is functional. Particulars: po.
The target of assay [5] is T2, Androgen receptor (Homo sapiens, UniProt P10275).
T2 sequence (P10275 whole entry): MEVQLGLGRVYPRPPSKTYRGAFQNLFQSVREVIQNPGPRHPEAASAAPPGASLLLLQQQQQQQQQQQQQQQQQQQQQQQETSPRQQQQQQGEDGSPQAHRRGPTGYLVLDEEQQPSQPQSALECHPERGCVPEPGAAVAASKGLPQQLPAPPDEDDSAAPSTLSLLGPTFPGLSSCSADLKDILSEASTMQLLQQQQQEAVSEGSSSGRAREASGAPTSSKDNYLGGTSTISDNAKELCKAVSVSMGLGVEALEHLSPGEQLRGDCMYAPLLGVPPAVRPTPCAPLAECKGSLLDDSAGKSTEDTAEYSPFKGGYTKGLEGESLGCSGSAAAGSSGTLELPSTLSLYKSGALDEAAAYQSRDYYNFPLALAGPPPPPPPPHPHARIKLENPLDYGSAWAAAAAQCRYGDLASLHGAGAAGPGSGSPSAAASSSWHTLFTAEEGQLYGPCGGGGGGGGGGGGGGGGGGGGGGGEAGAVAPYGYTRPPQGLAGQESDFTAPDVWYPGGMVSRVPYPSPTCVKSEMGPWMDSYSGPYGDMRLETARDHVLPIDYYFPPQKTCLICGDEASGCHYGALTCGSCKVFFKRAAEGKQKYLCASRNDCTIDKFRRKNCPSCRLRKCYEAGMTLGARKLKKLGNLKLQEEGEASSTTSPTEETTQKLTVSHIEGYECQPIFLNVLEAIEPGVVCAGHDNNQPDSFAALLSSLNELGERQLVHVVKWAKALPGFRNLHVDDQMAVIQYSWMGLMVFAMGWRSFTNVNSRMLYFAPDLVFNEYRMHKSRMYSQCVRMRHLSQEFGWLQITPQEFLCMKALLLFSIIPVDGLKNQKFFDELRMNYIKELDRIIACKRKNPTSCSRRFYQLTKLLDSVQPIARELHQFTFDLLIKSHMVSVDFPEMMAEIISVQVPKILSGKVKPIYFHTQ
In words: biochemical.
Description: Displacement of [3H]DHT from human AR in MDA453 cells

The target in assay [6] is T1, Androgen receptor. In words: Antagonist activity against rat AR transfected in mouse C2C12 cells by luciferase reporter transactivation assay relative to DHT. The assay is classed as functional, cell-based. On the technique in general: In a reporter assay the amount or activity of a reporter protein is the signal.
Assay [7] deals with Rattus norvegicus. In words: Selectivity for stimulation of levator ani muscle over prostate in sc dosed castrated Sprague-Dawley rat. The assay is classed as functional.
In assay [8] the test system is Rattus norvegicus. In words: Selectivity for stimulation of levetor ani muscle over suppression of LH secretion in sc dosed castrated Sprague-Dawley rat. The assay is classed as functional, Muscle tissue.
Assay [9] has as its system Rattus norvegicus. In words: Inhibition of LH secretion in sc dosed castrated Sprague-Dawley rat. The format is functional, organism-based.
For assay [10], the system named is Rattus norvegicus. As to the kind of experiment: Stimulation of levator ani muscle growth in sc dosed castrated Sprague-Dawley rat. The assay is classed as functional.
In assay [11] the test system is Rattus norvegicus. In words: Stimulation of prostate growth in sc dosed castrated Sprague-Dawley rat. The assay is classed as functional. The note with it: Prostate gland.

Each structure is given as a SMILES string.

As for `N#Cc1ccc(N2C(=O)[C@@H]3[C@H](O)CCN3C2=O)c2ccccc12`, the ED50 (usually the dose that gives a 50% effect, or the effect in half of the subjects) in the assay on Rattus norvegicus [1] was above 100 mg/kg; in the assay with Rattus norvegicus [2], 2 mg/kg; in the assay on Rattus norvegicus [4] it was 60 mg/kg. Moreover, the EC50 on Androgen receptor [3] is 2.3 nM.
The compound `O=C1[C@H]2C[C@H](O)CN2C(=O)N1c1ccc([N+](=O)[O-])c2ccccc12` registered an EC50 at Androgen receptor [3] of 265 nM. In addition, on Androgen receptor [5], the Ki (in general, a dissociation constant, usually derived from enzyme kinetics or from competition with a known ligand) amounted to 4.3 nM.
At Androgen receptor [3], `N#Cc1ccc(N2C(=O)[C@@H]3[C@H](O)CCN3C2=O)c2ccccc12` (single isomer, unassigned) came in with an EC50 of 1300 nM. In addition, at Androgen receptor [6], the IC50 (in general, the concentration that gives 50% inhibition) is 60 nM.
`N#Cc1ccc(N2C(=O)[C@H]3[C@@H]4CC[C@@H](C4)N3C2=O)c2ccccc12` showed an EC50 on Androgen receptor [3] above 1000 nM. This compound showed a Ki at Androgen receptor [5] of 24 nM. This compound registered an IC50 against Androgen receptor [6] of 260 nM.
Compound `N#Cc1ccc(N2C(=O)C3C(O)CCN3C2=O)c2ccccc12` (racemic) had an EC50 on Androgen receptor [3] of 6.3 nM.
In turn, `O=C1[C@@H]2[C@H](O)CCN2C(=O)N1c1ccc([N+](=O)[O-])c2ccccc12` (single isomer, unassigned) yielded an EC50 on Androgen receptor [3] of 281 nM. Also, at Androgen receptor [5], the affinity, expressed as Ki, was 1.5 nM.
On to `O=C1C2C(O)CCN2C(=O)N1c1ccc([N+](=O)[O-])c2ccccc12` (racemic), for which, at Androgen receptor [3], the EC50 was 4.4 nM. The compound also registered a Ki on Androgen receptor [5] of 3.5 nM.
In the case of `O=C1[C@@H]2[C@H](O)CCN2C(=O)N1c1ccc([N+](=O)[O-])c2ccccc12`, the EC50 at Androgen receptor [3] came to 1.5 nM. On Androgen receptor [5], this compound yielded a Ki of 2.1 nM.
Consider `CCC(=O)O[C@H]1CC[C@H]2[C@@H]3CCC4=CC(=O)CC[C@]4(C)[C@H]3CC[C@]12C` [TESTOSTERONE PROPIONATE], for which the “Ratio ED50” value with Rattus norvegicus [7] is listed as 2; in the assay with Rattus norvegicus [8] it was 1.2. The compound further gave an EC50 with Rattus norvegicus [9] of 0.26 mg/kg. Further, the ED50 with Rattus norvegicus [10] was found to be 0.21 mg/kg; in the assay with Rattus norvegicus [11], 0.42 mg/kg.
With `O=C1[C@H]2C[C@@H](O)CN2C(=O)N1c1ccc([N+](=O)[O-])c2ccccc12`, the EC50 at Androgen receptor [3] came to 320 nM. In addition, at Androgen receptor [5], the Ki was determined as 1.5 nM.
Turning to `O=C1C2CCCN2C(=O)N1c1ccc([N+](=O)[O-])c2ccccc12` (centres undefined), the EC50 on Androgen receptor [3] stood at 270 nM. For the same compound, on Androgen receptor [5], affinity was put at a Ki of 1.7 nM.
Compound `O=C1[C@H]2[C@@H]3CC[C@@H](C3)N2C(=O)N1c1ccc([N+](=O)[O-])c2ccccc12` had an EC50 at Androgen receptor [3] of 385 nM. At Androgen receptor [5], the Ki amounted to 1 nM.
